The values that follow come from US12331040B2 (Karyopharm Therapeutics Inc., priority 2013, dated 2025).

Test in all cases: MTT cell proliferation assay
What all share (assay type): cell-based

One experiment concerns MS751 cells. To be noted: Homo sapiens, MS751, MS751 cells, approximately 64-72 hours incubation. How it is done: (§1) The MTT cell proliferation assay was used to study the cytotoxic properties of the compounds. The assay was performed according to the method described by Roche Molecular Biochemicals, with minor modifications. The assay is based on the cleavage of the tetrazolium salt, MTT, in the presence of an electron-coupling reagent. The water-insoluble formazan salt produced must be solubilized in an additional step. Cells grown in a 96-well tissue culture plate were incubated with the MTT solution for approximately 4 hours. After this incubation period, a water-insoluble formazan dye formed. After solubilization, the formazan dye was quantitated using a scanning multi-well spectrophotometer (ELISA reader). […] The cells were seeded at 5,000-10,000 cells in each well of 96-well plate in 100 μL of fresh culture medium and were allowed to attach overnight. The stock solutions of the compounds were diluted in 100 μL cell culture medium to obtain eight concentrations of each test compound, ranging from 1 nM to 30 μM. […] All optical densities were measured at 490 nm using a Vmax Kinetic Microplate Reader (Molecular Devices). In most cases, the assay was performed in duplicate and the results were presented as a mean percent inhibition to the negative control±SE. The following formula was used to calculate the percent of inhibition: Inhibition (%)=(1−(ODo/OD))×100.
(§2) The compounds were tested against MS751, Z138 and 3T3 cells. The MS751 cell line is derived from a metastasis to lymph node of human cervix from a patient diagnosed with squamous cell carcinoma of the cervix. The Z138 cell line is a mature B-cell acute lymphoblastic leukemia cell line derived from a patient with chronic lymphocytic leukemia. 3T3 cells are standard fibroblast cells; they were originally isolated from Swiss mouse embryo tissue.

In the next experiment the test system is 3T3 cells. To be noted: Mus musculus, NIH3T3, approximately 64-72 hours incubation. On the procedure:
as §1, §2

A further experiment relates to Z138 cells. To be noted: Homo sapiens, Z-138, Z138 cells, approximately 64-72 hours incubation. On the procedure:
as §1, §2

The mark [1] stands for this setting: read-out: MTT Assay IC50 MS-751.
The mark [2] stands for this setting: read-out: MTT Assay IC50, MS-751.
[3] abbreviates: read-out: MTT Assay IC50, Z-138.

SMILES strings stand for the structures. Read-outs that look alike come from different tables or passages of the source.

Broadly, the IC50 is the concentration at which inhibition is half-maximal. Take `Nc1ccc(/C=C/C(=O)NCc2cc3cc(-c4ccc(C(=O)CN5CCOCC5)cc4)cc(Cl)c3o2)cn1` [Compound 507, (E)-3-(6-aminopyridin-3-yl)-N-((7-chloro-5-(4-(2-morpholinoacetyl)phenyl)benzofuran-2-yl)methyl)acrylamide]: the IC50 in the experiment on MS751 cells (setting [1]) was 0.1 to 5 µM; with 3T3 cells (read-out: MTT Assay IC50 3T3), more than 10 µM; with Z138 cells (read-out: MTT Assay IC50 Z-138) it was 0.1 to 5 µM.

With `CN1CCN(C(=O)c2ccc(-c3cc(Cl)c4oc(CNC(=O)/C=C/c5ccc(N)nc5)cc4c3)nc2)CC1` [Compound 584, (E)-3-(6-aminopyridin-3-yl)-N-((7-chloro-5-(5-(4-methylpiperazine-1-carbonyl)pyridin-2-yl)benzofuran-2-yl)methyl)acrylamide], the IC50 was less than 0.1 µM in the experiment with MS751 cells (setting [1]), 5 to 10 µM in the experiment on 3T3 cells (read-out: MTT Assay IC50 3T3) and less than 0.1 µM with Z138 cells (read-out: MTT Assay IC50 Z-138).

Turning to `Nc1ccc(/C=C/C(=O)NCc2cc3cc(-c4ccc(C(=O)N5CCC(F)(F)CC5)cn4)cc(-c4ccc5cnccc5c4)c3o2)cn1` [Compound 672, (E)-3-(6-aminopyridin-3-yl)-N-((5-(5-(4,4-difluoropiperidine-1-carbonyl)pyridin-2-yl)-7-(isoquinolin-6-yl)benzofuran-2-yl)methyl)acrylamide], the IC50 was 0.1 to 5 µM with MS751 cells (setting [2]); more than 10 µM with 3T3 cells (read-out: MTT Assay IC50, 3T3); 0.1 to 5 µM in the experiment with Z138 cells (setting [3]).

With `Nc1ccc(/C=C/C(=O)NCc2cc3cc(-c4ccc(C(=O)N5CCC(F)CC5)cc4)cc(Cl)c3o2)cn1` [Compound 598, (E)-3-(6-aminopyridin-3-yl)-N-((7-chloro-5-(4-(4-fluoropiperidine-1-carbonyl)phenyl)benzofuran-2-yl)methyl)acrylamide], the IC50 is 0.1 to 5 µM in the experiment with MS751 cells (setting [1]), more than 10 µM with 3T3 cells (read-out: MTT Assay IC50 3T3) and 0.1 to 5 µM in the experiment on Z138 cells (read-out: MTT Assay IC50 Z-138).

Turning to `O=C(/C=C/c1cccnc1)NCc1cc2cc(-c3ccc(C(=O)N4CCC(F)(F)CC4)cn3)cc(-c3ccc(F)cc3)c2o1` [Compound 719, (E)-N-((5-(5-(4,4-difluoropiperidine-1-carbonyl)pyridin-2-yl)-7-(4-fluorophenyl)benzofuran-2-yl)methyl)-3-(pyridin-3-yl)acrylamide], the IC50 was less than 0.1 µM in the experiment on MS751 cells (setting [2]); less than 0.1 µM in the experiment with 3T3 cells (read-out: MTT Assay IC50, 3T3); less than 0.1 µM with Z138 cells (setting [3]).

Consider `Nc1ccc(/C=C/C(=O)NCc2cc3c(-c4ccc(C(=O)N5CCC(F)(F)CC5)cc4)cc(Cl)cc3o2)cn1` [Compound 713, (E)-3-(6-aminopyridin-3-yl)-N-((6-chloro-4-(4-(4,4-difluoropiperidine-1-carbonyl)phenyl)benzofuran-2-yl)methyl)acrylamide], for which the IC50 in the experiment with MS751 cells (setting [2]) lay within 0.1 to 5 µM; in the experiment on 3T3 cells (read-out: MTT Assay IC50, 3T3), 5 to 10 µM; in the experiment with Z138 cells (setting [3]), 0.1 to 5 µM.

Consider `Nc1ccc(/C=C/C(=O)NCc2cc3cc(-c4ccc(C(=O)NNc5cnccn5)cc4)cc(C(F)(F)F)c3o2)cn1` [Compound 519, (E)-3-(6-aminopyridin-3-yl)-N-((5-(4-(2-(pyrazin-2-yl)hydrazinecarbonyl)phenyl)-7-(trifluoromethyl)benzofuran-2-yl)methyl)acrylamide], for which the IC50 in the experiment on MS751 cells (setting [1]) was 0.1 to 5 µM; in the experiment with 3T3 cells (read-out: MTT Assay IC50 3T3), more than 10 µM; with Z138 cells (read-out: MTT Assay IC50 Z-138), 0.1 to 5 µM.

With `Nc1ccc(/C=C/C(=O)NCc2cc3cc(-c4ccc(C(=O)N5CC[C@H](F)C5)cc4)cc(Cl)c3o2)cn1` [Compound 528, (S,E)-3-(6-aminopyridin-3-yl)-N-((7-chloro-5-(4-(3-fluoropyrrolidine-1-carbonyl)phenyl)benzofuran-2-yl)methyl)acrylamide], the IC50 with MS751 cells (setting [1]), with 3T3 cells (read-out: MTT Assay IC50 3T3) and with Z138 cells (read-out: MTT Assay IC50 Z-138) was more than 10 µM in each case.

As to `Nc1ccc(/C=C/C(=O)NCc2cc3cc(-c4ccc(C(=O)N5CCC(F)(F)CC5)cc4)cc(Cl)c3o2)cn1` [Compound 596, (E)-3-(6-aminopyridin-3-yl)-N-((7-chloro-5-(4-(4,4-difluoropiperidine-1-carbonyl)phenyl)benzofuran-2-yl)methyl)acrylamide], the IC50 was 0.1 to 5 µM with MS751 cells (setting [1]), more than 10 µM with 3T3 cells (read-out: MTT Assay IC50 3T3) and 0.1 to 5 µM with Z138 cells (read-out: MTT Assay IC50 Z-138).

In the case of `CC1(F)CCN(C(=O)c2ccc(-c3cc(C(F)(F)F)c4oc(CNC(=O)/C=C\c5ccc(N)nc5)cc4c3)nc2)C1` (single isomer, unassigned) [Compound 656, (Z)-3-(6-aminopyridin-3-yl)-N-((5-(5-(3-fluoro-3-methylpyrrolidine-1-carbonyl)pyridin-2-yl)-7-(trifluoromethyl)benzofuran-2-yl)methyl)acrylamide], the IC50 with MS751 cells (setting [1]) was 5 to 10 µM; in the experiment with 3T3 cells (read-out: MTT Assay IC50 3T3), more than 10 µM; in the experiment with Z138 cells (read-out: MTT Assay IC50 Z-138), 0.1 to 5 µM.

Turning to `Nc1ccc(/C=C/C(=O)NCc2cc3cc(-c4cccc(OC(=O)N5CCOCC5)c4)cc(C(F)(F)F)c3o2)cn1` [Compound 558, (E)-3-(2-((3-(6-aminopyridin-3-yl)acrylamido)methyl)-7-(trifluoromethyl)benzofuran-5-yl)phenyl morpholine-4-carboxylate], the IC50 with MS751 cells (setting [1]), in the experiment on 3T3 cells (read-out: MTT Assay IC50 3T3) and in the experiment with Z138 cells (read-out: MTT Assay IC50 Z-138) was more than 10 µM throughout.

Turning to `Nc1ccc(/C=C/C(=O)NCc2cc3cc(-c4cccc(C(=O)N5CCOCC5)c4)cc(C(F)(F)F)c3o2)cn1` [Compound 717, (E)-3-(6-aminopyridin-3-yl)-N-((5-(3-(morpholine-4-carbonyl)phenyl)-7-(trifluoromethyl)benzofuran-2-yl)methyl)acrylamide], the half-inhibitory concentration (IC50) in the experiment with MS751 cells (setting [2]) was 0.1 to 5 µM; in the experiment on 3T3 cells (read-out: MTT Assay IC50, 3T3), more than 10 µM; in the experiment with Z138 cells (setting [3]), less than 0.1 µM.

For the compound `Nc1ccc(/C=C/C(=O)NCc2cc3cc(-c4ccc(C(=O)N5CC[C@H](Cl)C5)cc4)cc(C(F)(F)F)c3o2)cn1` [Compound 610, (S,E)-3-(6-aminopyridin-3-yl)-N-((5-(4-(3-chloropyrrolidine-1-carbonyl)phenyl)-7-(trifluoromethyl)benzofuran-2-yl)methyl)acrylamide], the figures for the IC50 in the experiment on MS751 cells (setting [1]), in the experiment with 3T3 cells (read-out: MTT Assay IC50 3T3) and with Z138 cells (read-out: MTT Assay IC50 Z-138) were 0.1 to 5 µM, more than 10 µM and 0.1 to 5 µM, respectively.

Turning to `Nc1ccc(/C=C/C(=O)NCc2cc3cc(-c4cnc(C(=O)N5CCOCC5)c(F)c4)cc(Cl)c3o2)cn1` [Compound 544, (E)-3-(6-aminopyridin-3-yl)-N-((7-chloro-5-(5-fluoro-6-(morpholine-4-carbonyl)pyridin-3-yl)benzofuran-2-yl)methyl)acrylamide], the values for the IC50 in the experiment on MS751 cells (setting [1]), with 3T3 cells (read-out: MTT Assay IC50 3T3) and with Z138 cells (read-out: MTT Assay IC50 Z-138) were 0.1 to 5 µM, more than 10 µM and 0.1 to 5 µM, respectively.

For the compound `CC1(O)CN(C(=O)c2ccc(-c3cc(C(F)(F)F)c4oc(CNC(=O)/C=C/c5ccc(N)nc5)cc4c3)nc2)C1` [Compound 621, (E)-3-(6-aminopyridin-3-yl)-N-((5-(5-(3-hydroxy-3-methylazetidine-1-carbonyl)pyridin-2-yl)-7-(trifluoromethyl)benzofuran-2-yl)methyl)acrylamide], the IC50 is 0.1 to 5 µM in the experiment with MS751 cells (setting [1]), more than 10 µM with 3T3 cells (read-out: MTT Assay IC50 3T3) and 0.1 to 5 µM in the experiment on Z138 cells (read-out: MTT Assay IC50 Z-138).

In the case of `CC1(C)CN(C(=O)c2ccc(-c3cc(C(F)(F)F)c4oc(CNC(=O)/C=C/c5ccc(N)nc5)cc4c3)cc2)CCN1` [Compound 572, (E)-3-(6-aminopyridin-3-yl)-N-((5-(4-(3,3-dimethylpiperazine-1-carbonyl)phenyl)-7-(trifluoromethyl)benzofuran-2-yl)methyl)acrylamide], the figures for the IC50 in the experiment on MS751 cells (setting [1]), in the experiment on 3T3 cells (read-out: MTT Assay IC50 3T3) and in the experiment on Z138 cells (read-out: MTT Assay IC50 Z-138) were less than 0.1 µM, 0.1 to 5 µM and less than 0.1 µM, respectively.

With `CC1(O)CCN(C(=O)c2ccc(-c3cc(Cl)c4oc(CNC(=O)/C=C/c5ccc(N)nc5)cc4c3)cc2)CC1` [Compound 602, (E)-3-(6-aminopyridin-3-yl)-N-((7-chloro-5-(4-(4-hydroxy-4-methylpiperidine-1-carbonyl)phenyl)benzofuran-2-yl)methyl)acrylamide], the IC50 with MS751 cells (setting [1]) was 0.1 to 5 µM; in the experiment on 3T3 cells (read-out: MTT Assay IC50 3T3), more than 10 µM; in the experiment on Z138 cells (read-out: MTT Assay IC50 Z-138), 0.1 to 5 µM.

For the compound `Nc1ccc(/C=C/C(=O)NCc2cc3cc(-c4ccc(Oc5ccc(F)cc5)cn4)cc(-c4ccc(F)cc4)c3o2)cn1` [Compound 745, (E)-3-(6-aminopyridin-3-yl)-N-((5-(5-(4-fluorophenoxy)pyridin-2-yl)-7-(4-fluorophenyl)benzofuran-2-yl)methyl)acrylamide], the IC50 is 0.1 to 5 µM with MS751 cells (setting [2]); more than 10 µM in the experiment with 3T3 cells (read-out: MTT Assay IC50, 3T3); 0.1 to 5 µM with Z138 cells (setting [3]).

Turning to `Nc1ccc(/C=C/C(=O)NCc2cc3cc(-c4ccc(S(=O)(=O)N5CC(F)C5)cc4)cc(Cl)c3o2)cn1` [Compound 533, (E)-3-(6-aminopyridin-3-yl)-N-((7-chloro-5-(4-(3-fluoroazetidin-1-ylsulfonyl)phenyl)benzofuran-2-yl)methyl)acrylamide], the values for the IC50 in the experiment on MS751 cells (setting [1]), with 3T3 cells (read-out: MTT Assay IC50 3T3) and in the experiment on Z138 cells (read-out: MTT Assay IC50 Z-138) were 0.1 to 5 µM, more than 10 µM and 0.1 to 5 µM, respectively.
